IC50 data for 13 compounds are collected here from US9242987B2, “Heterocyclyl pyrazolopyrimidine analogues as JAK inhibitors” (Cellzome Limited, priority 2009, dated 2016).

One experiment addresses T1, JAK3 (Homo sapiens, UniProt P52333).
T1 construct: endogenous in cells; host or cells: Mixed Molt4/Ramos lysate (1:2)
T1 sequence (P52333 1-1124): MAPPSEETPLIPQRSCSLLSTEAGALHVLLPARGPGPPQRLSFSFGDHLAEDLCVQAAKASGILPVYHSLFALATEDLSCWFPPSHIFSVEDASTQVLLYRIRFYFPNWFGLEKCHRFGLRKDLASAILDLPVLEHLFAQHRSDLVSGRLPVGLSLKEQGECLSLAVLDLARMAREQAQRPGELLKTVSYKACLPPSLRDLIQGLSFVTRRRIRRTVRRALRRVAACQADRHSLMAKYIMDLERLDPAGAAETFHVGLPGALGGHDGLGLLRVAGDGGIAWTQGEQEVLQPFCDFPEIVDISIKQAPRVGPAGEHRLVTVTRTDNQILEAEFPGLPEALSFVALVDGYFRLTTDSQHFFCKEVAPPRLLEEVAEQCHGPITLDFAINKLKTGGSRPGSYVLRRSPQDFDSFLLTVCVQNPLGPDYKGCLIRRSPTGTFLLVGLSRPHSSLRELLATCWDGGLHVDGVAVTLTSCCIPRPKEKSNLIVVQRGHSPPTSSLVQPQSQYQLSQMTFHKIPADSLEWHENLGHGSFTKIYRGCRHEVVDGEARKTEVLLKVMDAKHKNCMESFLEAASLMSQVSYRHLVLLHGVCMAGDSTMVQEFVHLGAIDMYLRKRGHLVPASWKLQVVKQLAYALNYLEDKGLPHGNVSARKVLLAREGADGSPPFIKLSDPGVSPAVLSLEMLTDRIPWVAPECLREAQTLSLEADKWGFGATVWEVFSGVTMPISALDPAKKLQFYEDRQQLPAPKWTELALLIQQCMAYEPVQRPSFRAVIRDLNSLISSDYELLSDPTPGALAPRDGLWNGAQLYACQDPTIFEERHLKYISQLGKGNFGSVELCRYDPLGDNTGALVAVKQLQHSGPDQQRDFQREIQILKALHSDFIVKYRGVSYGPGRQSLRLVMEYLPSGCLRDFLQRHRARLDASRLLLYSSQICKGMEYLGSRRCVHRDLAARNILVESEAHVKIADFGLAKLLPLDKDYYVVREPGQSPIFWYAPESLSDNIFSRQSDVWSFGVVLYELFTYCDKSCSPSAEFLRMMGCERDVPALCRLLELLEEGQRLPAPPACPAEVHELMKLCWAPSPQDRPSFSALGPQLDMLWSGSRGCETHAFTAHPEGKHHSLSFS
Kind of experiment: Kinobeads assay, JAK3. In kind it is binding. The settings on record: mixed Molt4/Ramos cell lysate, dot blot detection. The procedure, abridged:
(§1)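 Competition pulldown: compound dilution series incubated 3 h in cold room with immobilized aminopyrido-pyrimidine beads and mixed Molt4/Ramos lysate (1:2, 10 mg/mL protein) in DP buffer pH 7.4 with NP40. Bead-bound JAK2/JAK3 eluted, quantified by antibody dot blot with infrared detection; IC50 from dose-response curves.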

The next experiment concerns the target T2, JAK2 (Homo sapiens, UniProt O60674).
T2 construct: endogenous in cells; host or cells: Mixed Molt4/Ramos lysate (1:2)
The experiment is described as follows: Kinobeads assay, JAK2. In kind it is binding. Particulars: mixed Molt4/Ramos cell lysate, dot blot detection. The procedure, abridged:
as §1

T2 sequence (O60674 whole entry): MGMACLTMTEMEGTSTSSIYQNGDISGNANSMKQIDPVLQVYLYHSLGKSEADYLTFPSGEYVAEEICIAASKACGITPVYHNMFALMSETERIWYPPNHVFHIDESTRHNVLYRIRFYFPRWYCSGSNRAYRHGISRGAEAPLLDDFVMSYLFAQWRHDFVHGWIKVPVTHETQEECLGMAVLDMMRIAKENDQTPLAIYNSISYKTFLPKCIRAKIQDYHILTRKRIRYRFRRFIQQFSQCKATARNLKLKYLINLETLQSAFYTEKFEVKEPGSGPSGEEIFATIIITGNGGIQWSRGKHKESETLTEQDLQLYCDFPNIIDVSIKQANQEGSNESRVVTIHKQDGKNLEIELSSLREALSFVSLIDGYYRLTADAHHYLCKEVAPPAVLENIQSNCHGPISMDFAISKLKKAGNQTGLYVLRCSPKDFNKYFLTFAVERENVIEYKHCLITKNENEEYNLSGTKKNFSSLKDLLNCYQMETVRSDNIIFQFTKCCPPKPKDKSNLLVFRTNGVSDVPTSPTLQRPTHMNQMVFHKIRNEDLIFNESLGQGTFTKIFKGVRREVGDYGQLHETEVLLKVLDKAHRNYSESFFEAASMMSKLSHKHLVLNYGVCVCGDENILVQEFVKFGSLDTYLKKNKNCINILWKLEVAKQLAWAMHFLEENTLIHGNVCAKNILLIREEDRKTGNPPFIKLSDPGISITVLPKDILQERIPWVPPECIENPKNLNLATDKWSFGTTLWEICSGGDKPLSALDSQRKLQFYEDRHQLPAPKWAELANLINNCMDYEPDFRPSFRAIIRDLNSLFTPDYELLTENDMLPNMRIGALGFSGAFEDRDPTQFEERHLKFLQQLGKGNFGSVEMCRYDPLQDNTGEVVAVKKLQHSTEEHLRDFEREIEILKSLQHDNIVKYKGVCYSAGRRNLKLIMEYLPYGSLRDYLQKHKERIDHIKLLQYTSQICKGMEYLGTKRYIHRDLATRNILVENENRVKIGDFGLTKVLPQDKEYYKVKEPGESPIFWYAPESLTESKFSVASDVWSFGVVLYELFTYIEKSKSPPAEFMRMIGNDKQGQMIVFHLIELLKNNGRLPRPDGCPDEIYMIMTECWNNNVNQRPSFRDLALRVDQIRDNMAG

In the case of `CNC(=O)c1cc(Nc2ncc3cnn(Cc4ccccc4F)c3n2)cn1C` [Example 242, 4-((1-(2-Fluorobenzyl)-1H-pyrazolo[3,4-d]pyrimidin-6-yl)amino)-N,1-dimethyl-1H-pyrrole-2-carboxamide], the 50% inhibitory concentration (IC50) at JAK3 was < 100 nM; against JAK2, 100 to 1000 nM.

With `Cn1cc(Nc2ncc3cnn(Cc4ccccc4F)c3n2)cc1C(=O)NCCN1CCOCC1` [Example 243, 4-((1-(2-Fluorobenzyl)-1H-pyrazolo[3,4-d]pyrimidin-6-yl)amino)-1-methyl-N-(2-morpholinoethyl)-1H-pyrrole-2-carboxamide], the half-inhibitory concentration (IC50) against JAK3 and on JAK2 was < 100 nM throughout.

As for `Cn1cc(Nc2ncc3cnn(Cc4ccccc4F)c3n2)cc1C(=O)N1CCOCC1` [Example 244, (4-((1-(2-Fluorobenzyl)-1H-pyrazolo[3,4-d]pyrimidin-6-yl)amino)-1-methyl-1H-pyrrol-2-yl)(morpholino)methanone], the IC50 at JAK3 and on JAK2 was < 100 nM in each case.

Take `Cn1cc(Nc2ncc3cnn(Cc4ccccc4F)c3n2)cc1C(=O)NCC#N` [Example 245, N-(Cyanomethyl)-4-((1-(2-fluorobenzyl)-1H-pyrazolo[3,4-d]pyrimidin-6-yl)amino)-1-methyl-1H-pyrrole-2-carboxamide]: the half-maximal inhibitory concentration (IC50) is < 100 nM against JAK3 and 100 to 1000 nM against JAK2.

On to `CN(C)C(=O)c1cc(Nc2ncc3cnn(Cc4ccccc4F)c3n2)cn1C` [Example 246, 4-((1-(2-Fluorobenzyl)-1H-pyrazolo[3,4-d]pyrimidin-6-yl)amino)-N,N,1-trimethyl-1H-pyrrole-2-carboxamide], for which the 50% inhibitory concentration (IC50) against JAK3 is < 100 nM; at JAK2, 100 to 1000 nM.

With `OCCn1ccc(Nc2ncc3cnn(Cc4ccccc4F)c3n2)c1` [Example 247, 2-(3-((1-(2-Fluorobenzyl)-1H-pyrazolo[3,4-d]pyrimidin-6-yl)amino)-1H-pyrrol-1-yl)ethanol], the IC50 is < 100 nM against JAK3 and 100 to 1000 nM against JAK2.

As for `Cn1cc(Nc2ncc3cnn(Cc4cccc(N5CCOCC5)c4)c3n2)cc1C(=O)N1CCOCC1` [Example 248], the concentration for half-maximal inhibition (IC50) is < 100 nM on JAK3 and 1000 to 10000 nM at JAK2.

As for `OCCn1cc(Nc2ncc3cnn(Cc4c(F)ccc(F)c4F)c3n2)cn1` [Example 254, 2-(4-((1-(2,3,6-Trifluorobenzyl)-1H-pyrazolo[3,4-d]pyrimidin-6-yl)amino)-1H-pyrazol-1-yl)ethanol], the half-inhibitory concentration (IC50) is < 100 nM against JAK3 and 100 to 1000 nM against JAK2.

Take `OCCn1cc(Nc2ncc3cnn(Cc4ccccc4C4CC4)c3n2)cn1` [Example 260, 2-(4-((1-(2-Cyclopropylbenzyl)-1H-pyrazolo[3,4-d]pyrimidin-6-yl)amino)-1H-pyrazol-1-yl)ethanol]: the IC50 on JAK3 was < 100 nM; against JAK2, 1000 to 10000 nM.

Consider `OCCn1cc(Nc2ncc3cnn(Cc4c(F)cccc4C(F)(F)F)c3n2)cn1` [Example 261, 2-(4-((1-(2-Fluoro-6-(trifluoromethyl)benzyl)-1H-pyrazolo[3,4-d]pyrimidin-6-yl)amino)-1H-pyrazol-1-yl)ethanol], for which the IC50 on JAK3 was < 100 nM; at JAK2, 1000 to 10000 nM.

As for `OCCn1cc(Nc2ncc3cnn(Cc4c(F)c(F)cc(N5CCNCC5)c4F)c3n2)cn1` [Example 283, 2-(4-((1-(2,3,6-Trifluoro-5-(piperazin-1-yl)benzyl)-1H-pyrazolo[3,4-d]pyrimidin-6-yl)amino)-1H-pyrazol-1-yl)ethanol], the 50% inhibitory concentration (IC50) against JAK3 was < 100 nM; at JAK2, 1000 to 10000 nM.

Turning to `CNC(=O)Cn1cc(Nc2ncc3cnn(Cc4ccccc4F)c3n2)cn1` [Example 290, 2-(4-((1-(2-Fluorobenzyl)-1H-pyrazolo[3,4-d]pyrimidin-6-yl)amino)-1H-pyrazol-1-yl)-N-methylacetamide], the IC50 against JAK3 was < 100 nM; at JAK2, 100 to 1000 nM.

Take `CNC(=O)Cn1cc(Nc2ncc3cnn(Cc4cccc(F)n4)c3n2)cn1` [Example 291, 2-(4-((1-((6-Fluoropyridin-2-yl)methyl)-1H-pyrazolo[3,4-d]pyrimidin-6-yl)amino)-1H-pyrazol-1-yl)-N-methylacetamide]: the values for the IC50 against JAK3 and on JAK2 were < 100 nM and 1000 to 10000 nM, respectively.
